≈ marks a conversion by molar mass, not a printed value. Like-named read-outs stand apart in the source and are kept apart here.
Key:
[1] = test system: human liver cancer HepG2 cells; settings: Patent No. CN 104736157 A; cited from earlier work
[2] = test system: COLO-16 cells; assay: cells; settings: for IC50: test concentrations in ng/mL
Experimental: (§1) The experimental procedures were as follows: The cells were subcultured in a complete medium containing 10% FBS in an incubator at 37 °C with 5% CO2 and saturated humidity. The cell density was adjusted to (3-5) × 10^4 cells/mL using a complete medium containing 10% FBS. The cell suspension was added to the wells of a 96-well culture plate at 100 µL/well, and the plate was incubated in an incubator at 37 °C with 5% CO2 and saturated humidity overnight (for about 16-24 hrs). Various dose groups of the test substance and a solvent control group were set. On the next day, the original culture medium was discarded. Subsequently, 20% FBS-containing complete medium was added at 100 µL/well, and the test substance or solvent in FBS-free medium was then added at 100 µL/well, resulting in a final FBS concentration of 10%. Meanwhile, a negative control group was set: each well received 100 µL of 20% FBS-containing complete medium + 100 µL of incomplete medium containing cells, resulting in a final FBS concentration of 10%. A zero adjustment group (background) was also set: 200 µL of the culture medium alone (100 µL of 20% FBS-containing complete medium + 100 µL of incomplete medium), without drugs and cells. For each concentration group, four replicate wells were set.
After incubation for 48 hrs under the experimental conditions, the supernatant was discarded, and 110 µL of CCK-8 working solution (100 µL of 10% FBS-containing complete medium and 10 µL of CCK-8 solution) were added to each well. The cells were further incubated for 4 hrs, and the optical density value at a wavelength of 450 nm (A450) was then measured for each well using a microplate reader. The average value for the wells of each treatment group (T) was compared with the average value for the negative control wells (C). The percent inhibition rate of each concentration group was calculated using the following formula: [Inhibition rate = (1 - T/C) × 100%], and the half-maximal inhibitory concentration (IC50) was calculated.

[3] = test system: A431 cells; settings: 48 hrs
Experimental: as §1, with “Meanwhile, a negative control group was set: each well received 100 µL of 20% FBS-containing complete medium + 100 µL of incomplete medium containing cells, resulting in a final FBS concentration of 10%. A zero adjustment group (background) was also set: 200 µL of the culture medium alone (100 µL of 20% FBS-containing complete medium + 100 µL of incomplete medium), without drugs and cells. For each concentration group, four replicate wells were set.” left out
(§2) After incubation for 48 hrs under the experimental conditions, the supernatant was discarded, and 110 µL of CCK-8 working solution (100 µL of 10% FBS-containing complete medium and 10 µL of CCK-8 solution) were added to each well. The cells were further incubated for 4 hrs, and the optical density value at a wavelength of 450 nm (A450) was then measured for each well using a microplate reader. […]

[4] = test system: SCL-1 cells; settings: 48 hrs
Experimental: as §1, with “Meanwhile, a negative control group was set: each well received 100 µL of 20% FBS-containing complete medium + 100 µL of incomplete medium containing cells, resulting in a final FBS concentration of 10%. A zero adjustment group (background) was also set: 200 µL of the culture medium alone (100 µL of 20% FBS-containing complete medium + 100 µL of incomplete medium), without drugs and cells. For each concentration group, four replicate wells were set.” left out
as §2

[5] = 20 °C
[6] = for plasma drug concentrations above the LLOQ: topical gel 0.008-0.06 mg/cm^2, LLOQ 0.02 ng/mL
[7] = test system: TE.354.T cells (human cutaneous basal cell carcinoma); assay: cells; settings: 72 h, read-out: half-maximal inhibitory concentration
Experimental: The percent inhibition rate of each concentration group was calculated using the following formula: [Inhibition rate = (1 - T/C) × 100%], and the half-maximal inhibitory concentration (IC50) was calculated.

[8] = not given; remark: listed apart in the source
[9] = test system: COLO-16 cells; settings: drug substance 0.8 mg/kg; intragastric administration, once every other day; after 21 days of treatment

**Q.** Which “cell cycle arrest and apoptosis” value [1] does the source give for `CO[C@H]1[C@H](O)[C@H](O[C@H]2CC[C@@]3(C)[C@H](CC[C@@H]4[C@@H]3CC[C@]3(C)[C@@H](C5=CC(=O)OC5)CC[C@]43O)C2)O[C@@H](C)[C@@H]1O` [17β-neriifolin] here?
**A.** The value was “induce cell cycle arrest and apoptosis”.

**Q.** And the Inhibition rate% ([2]; 2.5 ng/mL, 48 hrs)?
**A.** The Inhibition rate% was 6.9%.

**Q.** What about the Inhibition rate% ([2]; 25 ng/mL, 48 hrs) of the same molecule?
**A.** The Inhibition rate% was 72.7%.

**Q.** And the Inhibition rate% ([2]; 50 ng/mL, 48 hrs)?
**A.** Its Inhibition rate% is 77.9%.

**Q.** And the Inhibition rate% ([2]; 100 ng/mL, 48 hrs)?
**A.** The Inhibition rate% was 89.5%.

**Q.** What about the IC50 ([2]; 48 hrs) of the same molecule?
**A.** Its IC50 is 12.28.

**Q.** What about the inhibition at 0.0025 µg/mL ([2]; Homo sapiens, 48 h, read-out: Inhibition rate%, 2.5 ng/mL) of the same molecule?
**A.** Its inhibition at 0.0025 µg/mL is 9%.

**Q.** What about the inhibition at 0.025 µg/mL ([2]; Homo sapiens, 48 h, read-out: Inhibition rate%, 25 ng/mL) of the same molecule?
**A.** Its inhibition at 0.025 µg/mL is 57.3%.

**Q.** And the inhibition at 0.05 µg/mL ([2]; Homo sapiens, 48 h, read-out: Inhibition rate%, 50 ng/mL)?
**A.** The inhibition at 0.05 µg/mL was 74.5%.

**Q.** What about the inhibition at 0.1 µg/mL ([2]; Homo sapiens, 48 h, read-out: Inhibition rate%, 100 ng/mL) of the same molecule?
**A.** Its inhibition at 0.1 µg/mL is 85.3%.

**Q.** And the IC50 ([2]; Homo sapiens, 48 h)?
**A.** The IC50 was 0.0186 mg/L (≈ 0.0348 µM).

**Q.** And the growth inhibitory effects [3]?
**A.** Its growth inhibitory effects is “strong growth inhibitory effects”.

**Q.** And the growth inhibitory effects [4]?
**A.** The growth inhibitory effects was “strong growth inhibitory effects”.

**Q.** And the Dissolution behavior ([5]; Ethanol concentration 20%, sample concentration 8 mg/g)?
**A.** The Dissolution behavior was “Dissolved”.

**Q.** And the Dissolution behavior ([5]; Ethanol concentration 45%, sample concentration 20 mg/g)?
**A.** The Dissolution behavior was “Dissolved”.

**Q.** And the Dissolution behavior ([5]; Ethanol concentration 50%, sample concentration 24 mg/g)?
**A.** Its Dissolution behavior is “Dissolved”.

**Q.** What about the Dissolution behavior ([5]; Ethanol concentration 66%, sample concentration 32 mg/g) of the same molecule?
**A.** The Dissolution behavior was “Dissolved”.

**Q.** And the Dissolution behavior ([5]; Ethanol concentration 75%, sample concentration 40 mg/g)?
**A.** The Dissolution behavior was “Dissolved”.

**Q.** What about the Dissolution behavior ([5]; Ethanol concentration 100%, sample concentration 50 mg/g) of the same molecule?
**A.** The Dissolution behavior was “Dissolved”.

**Q.** And the solubility?
**A.** Its solubility is about 0.07 mg/mL (≈ 131 µM).

**Q.** And the “plasma drug concentrations above the LLOQ” value ([6]; four Australian subjects)?
**A.** The value was 0.021 to 0.101 ng/mL.

**Q.** And the “plasma drug concentrations above the LLOQ” value ([6]; seven Chinese subjects)?
**A.** The value was 0.022 to 0.106 ng/mL.

**Q.** What about the “dose dependence of systemic exposure” value ([6]; topical gel, 0.008-0.06 mg/cm^2 dose range) of the same molecule?
**A.** The value was “No dose-dependent increase”.

**Q.** What about the IC50 [7] of the same molecule?
**A.** Its IC50 is about 0.01 mg/L (≈ 0.0187 µM).

**Q.** What about the Saturation solubility ([8]; 10% ethanol) of the same molecule?
**A.** The Saturation solubility was 0.16 mg/mL.

**Q.** And the Saturation solubility ([8]; 10% propylene glycol)?
**A.** The Saturation solubility was 0.08 mg/mL.

**Q.** What about the Saturation solubility ([8]; 20% ethanol) of the same molecule?
**A.** Its Saturation solubility is 0.38 mg/mL.

**Q.** And the Saturation solubility ([8]; 20% propylene glycol)?
**A.** Its Saturation solubility is 0.10 mg/mL.

**Q.** And the Saturation solubility ([8]; 30% ethanol)?
**A.** Its Saturation solubility is 0.91 mg/mL.

**Q.** What about the Saturation solubility ([8]; 30% propylene glycol) of the same molecule?
**A.** Its Saturation solubility is 0.42 mg/mL.

**Q.** What about the Saturation solubility ([8]; 40% ethanol) of the same molecule?
**A.** Its Saturation solubility is 2.17 mg/mL.

**Q.** And the Saturation solubility ([8]; 40% propylene glycol)?
**A.** Its Saturation solubility is 0.75 mg/mL.

**Q.** What about the tumor inhibition rate [9] of the same molecule?
**A.** Its tumor inhibition rate is “greater than 80%”.
